Assay results: PubChem BioAssay (NCI)
Where “and” joins values, the source holds several entries; their conditions need not be identical. Equal entries are not always repeated.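 Growth conditions: 96-well plates. Treatment: test compound, 48 hours, 5 concentrations. Analysis: linear interpolation between bracketing concentrations; unreached endpoints set to highest concentration. The concentration for 50% growth inhibition is given as GI50. The concentration for full growth arrest is given as TGI.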

Legend:
Assay in all cases: NCI anticancer screen, dose series, 48 h
SK-OV-3 ovarian = system: SK-OV-3 ovarian
BT-549 breast = system: BT-549 breast
UACC-257 melanoma = system: UACC-257 melanoma
NCI-H522 lung = system: NCI-H522 lung
HOP-92 NSCLC = system: HOP-92 NSCLC
UO-31 renal = system: UO-31 renal
OVCAR-5 ovarian = system: OVCAR-5 ovarian
SR leukemia = system: SR leukemia
MDA-N = system: MDA-N
786-0 renal = system: 786-0 renal
CCRF-CEM leukemia = system: CCRF-CEM leukemia
MDA-MB-435 = system: MDA-MB-435

SMILES	TGI (SK-OV-3 ovarian)	TGI (BT-549 breast) [µM]	TGI (UACC-257 melanoma)	TGI (NCI-H522 lung)	TGI (HOP-92 NSCLC)	TGI (UO-31 renal)	TGI (OVCAR-5 ovarian)	TGI (SR leukemia) [µM]	TGI (MDA-N) [µM]	TGI (786-0 renal) [µM]	TGI (CCRF-CEM leukemia)	TGI (MDA-MB-435) [µM]	GI50 (SK-OV-3 ovarian) [µM]	GI50 (UACC-257 melanoma) [µM]	GI50 (NCI-H522 lung) [µM]	GI50 (HOP-92 NSCLC) [µM]	GI50 (UO-31 renal) [µM]	GI50 (OVCAR-5 ovarian) [µM]	GI50 (CCRF-CEM leukemia)
Clc1cc(OC2C3CC4CC(C3)CC2C4)nc(Cl)n1 (centres undefined)	> 100 µM	52.4	27.4 µM	27.1 µM	3.41 µM	10.8 µM	44.2 µM	11.7	53.9	33.5	38.8 µM	37.9							
Oc1cccc2c(Cl)ccnc12	96.9 µM	> 100	12.1 µM	2.44 µM	21.5 µM	> 95.3 µM	> 50.4 µM	9.57	> 100	> 100	2.52 µM	> 78.5							
Nc1cccc2cc(Cl)cnc12	> 100 µM	> 100	> 100 µM	> 100 µM	> 100 µM	> 100 µM	> 100 µM	> 100	> 100	> 100	> 100 µM	> 100							
O=C(CCC(=O)c1ccc(Cl)cc1)NO	> 100 µM	> 100	> 100 µM	> 100 µM	> 100 µM	> 100 µM	> 100 µM	> 100	> 100	> 100	> 100 µM	> 100							
C=C(Br)C(C)(Cl)CCC(Br)C(C)(C)Cl (centres undefined)	> 100 µM	> 100	85 µM	> 100 µM	95.6 µM	> 100 µM	> 100 µM	> 100	> 100	39.9	44.5 µM	86.3							
CN1CCN([C@H]2C[C@H]3[C@@H]4CC=C5C[C@@H](O)CC[C@]5(C)[C@H]4CC[C@]3(C)C2=O)CC1	> 100 µM	> 100	> 100 µM	> 100 µM	> 100 µM	> 100 µM	> 100 µM	70.1	> 100	> 100	> 100 µM	> 100							
O=C(NNC(=O)c1ccccc1SSc1ccccc1C(=O)NNC(=O)c1ccccc1S)c1ccccc1S	> 100 µM	74.8	> 95.4 µM	1.67 µM	> 100 µM	> 100 µM	> 100 µM	> 75.3	> 100	98	24.4 µM	> 100							
C=C1c2nc3ccccc3n2C=C(c2ccccc2)N1c1ccc([N+](=O)[O-])cc1	15.3 µM	46.4	63.4 µM	24.4 µM	21.9 µM	16 µM	40.7 µM	> 70	43.5	4.13	> 81.3 µM	32.6							
COC(=O)[C@H]1CO[C@@H](C(C)(C)C)N1C(=O)N1C=CC(=O)C[C@@H]1C	> 100 µM	> 100	> 100 µM	> 100 µM	> 100 µM	> 100 µM	> 100 µM	> 100	> 100	> 100	> 100 µM	> 100							
N=c1n(C(=O)N2CCCC2)c2cc(Cl)ccc2n1C1=NCCN1	> 100 µM	> 100	> 100 µM	> 100 µM	> 100 µM		> 100 µM	> 100	> 100	> 100	> 100 µM	> 100							
Cc1c2cnccc2c(C)c2c1c1ccccc1n2CCCN	1.71 µM and 1.25 µM	2.85	2.32 µM and 1.92 µM	1.28 µM and 0.281 µM	1.22 µM and 2.14 µM	1.88 µM and 0.225 µM	1.71 µM and 0.874 µM	0.349	1.39	0.564	0.75 µM and 0.215 µM	0.46	0.278	0.633	0.108	0.776	0.0685	0.196	0.0966 µM and 0.0188 µM
COc1cc(/C=C/C(=N\NS(=O)(=O)c2ccc(C)cc2)c2sc(NNC(C)=O)nc2C)ccc1O	> 100 µM	> 100	> 100 µM	> 100 µM	> 100 µM	> 100 µM	> 100 µM	> 100	> 100	> 100	> 100 µM	> 100							
CCC[C@@H](O)C[C@@H]1CCC[C@H](C[C@@H](O)CC)N1C	> 100 µM	> 100	> 100 µM	30.7 µM	5.06 µM	> 100 µM	> 100 µM	> 100	> 100	> 100	> 100 µM	> 100							
Clc1ccc(/C=C/c2nc3ccccc3s2)cc1Cl	> 100 µM	> 100	> 100 µM	> 100 µM	72.3 µM	56 µM	> 100 µM	> 100	> 100	32.1	> 100 µM	> 100							
COc1c(C)c(C/C=C(\C)CCCCO[Si](c2ccccc2)(c2ccccc2)C(C)(C)C)c(OC)c(OC)c1OC	> 46.4 µM	> 46.4	> 46.4 µM	> 100 µM	> 31.6 µM	19.4 µM	> 46.4 µM	> 46.4	> 46.4	40.5	> 46.4 µM	> 46.4							
CC(C)CC(=O)OC[n+]1ccc(-c2c(COC(=O)NC(C)C)c(COC(=O)NC(C)C)c3n2CCC3)cc1	> 100 µM	> 100	> 100 µM	> 100 µM	> 100 µM	> 100 µM	> 100 µM	> 100	> 100	> 100	> 100 µM	> 100							
COc1ccc(C(OCC2OC(n3cc(C)c(=O)[nH]c3=O)CC2n2cc(Cn3cc(I)c(=O)[nH]c3=O)nn2)(c2ccccc2)c2ccccc2)cc1 (centres undefined)	> 100 µM	> 100	> 100 µM	> 100 µM	> 100 µM	> 100 µM	> 100 µM	> 100	> 100	> 100	> 100 µM	> 100							
O=C1/C(=C/c2ccc(O)cc2)CC/C1=C\c1ccc(O)cc1	> 100 µM	> 100	> 100 µM	> 100 µM	> 100 µM	> 100 µM	> 100 µM	> 100	> 100	> 100	6.74 µM	> 100							
COc1ccc(C2c3cc4c(cc3OC(NNS(=O)(=O)c3ccc(C)cc3)C2C)OCO4)cc1 (centres undefined)	> 100 µM	> 100	> 100 µM	> 100 µM	85.3 µM	> 100 µM	> 100 µM	69.7	> 100	> 100	> 100 µM	> 100							
